Legend:
[1] = biological target: T1, VibO (Boreostereum vibrans, UniProt A0AA82WP17, D99A); experiment: LC-MS peak area of product […]; assay type: biochemical; conditions: 6 0.5 mM, NADPH 0.1 mM, pH 7.5, 28 °C, 2 h; hydroxylation to 7
T1 construct: full length, N-terminal His6 tag, expressed in E. coli BL21(DE3) (pET28a(+)); domains cover residues 1-653; dimer; copurified FAD

[2] = biological target: T2, VibO (Boreostereum vibrans, UniProt A0AA82WP17, D99N); experiment: LC-MS peak area of product […]; assay type: biochemical; conditions: 6 0.5 mM, NADPH 0.1 mM, pH 7.5, 28 °C, 2 h; hydroxylation to 7
T2 construct: full length, N-terminal His6 tag, expressed in E. coli BL21(DE3) (pET28a(+)); domains cover residues 1-653; dimer; copurified FAD
T2 sequence (A0AA82WP17 entry or part of it D99N): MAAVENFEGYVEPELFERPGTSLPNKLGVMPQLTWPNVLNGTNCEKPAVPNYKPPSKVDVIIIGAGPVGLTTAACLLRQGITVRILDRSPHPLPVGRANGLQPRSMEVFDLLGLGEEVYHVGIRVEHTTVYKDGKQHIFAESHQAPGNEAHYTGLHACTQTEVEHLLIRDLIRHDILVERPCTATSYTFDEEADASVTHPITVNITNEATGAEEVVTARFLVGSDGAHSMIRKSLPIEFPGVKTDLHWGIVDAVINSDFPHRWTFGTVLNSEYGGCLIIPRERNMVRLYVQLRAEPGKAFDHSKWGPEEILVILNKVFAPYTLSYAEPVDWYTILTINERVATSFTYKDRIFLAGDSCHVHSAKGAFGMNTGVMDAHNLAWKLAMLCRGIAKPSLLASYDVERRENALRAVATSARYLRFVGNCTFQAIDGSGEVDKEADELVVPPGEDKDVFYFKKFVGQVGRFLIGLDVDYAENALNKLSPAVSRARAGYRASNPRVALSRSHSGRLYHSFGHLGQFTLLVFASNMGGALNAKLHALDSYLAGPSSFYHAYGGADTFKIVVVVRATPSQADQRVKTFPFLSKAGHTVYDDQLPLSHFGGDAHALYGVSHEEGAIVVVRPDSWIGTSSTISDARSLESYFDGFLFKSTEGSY

[3] = biological target: T3, VibO (Boreostereum vibrans, UniProt A0AA82WP17, F265Y); experiment: LC-MS peak area of product […]; assay type: biochemical; conditions: 6 0.5 mM, NADPH 0.1 mM, pH 7.5, 28 °C, 2 h; hydroxylation to 7
T3 construct: full length, N-terminal His6 tag, expressed in E. coli BL21(DE3) (pET28a(+)); domains cover residues 1-653; dimer; copurified FAD
T3 sequence (A0AA82WP17 entry or part of it F265Y): as the sequence (A0AA82WP17 entry or part of it D99N) above, with N99D, F265Y counted along it

[4] = biological target: T4, PHHY (Cutaneotrichosporon cutaneum, UniProt P15245); experiment: enzyme assay, catechol production; assay type: cell-based; conditions: E. coli-expressed enzyme; purification not told in main text
T4 construct: synthesized gene expressed in E. coli; FAD-dependent
T4 sequence (P15245 2-665): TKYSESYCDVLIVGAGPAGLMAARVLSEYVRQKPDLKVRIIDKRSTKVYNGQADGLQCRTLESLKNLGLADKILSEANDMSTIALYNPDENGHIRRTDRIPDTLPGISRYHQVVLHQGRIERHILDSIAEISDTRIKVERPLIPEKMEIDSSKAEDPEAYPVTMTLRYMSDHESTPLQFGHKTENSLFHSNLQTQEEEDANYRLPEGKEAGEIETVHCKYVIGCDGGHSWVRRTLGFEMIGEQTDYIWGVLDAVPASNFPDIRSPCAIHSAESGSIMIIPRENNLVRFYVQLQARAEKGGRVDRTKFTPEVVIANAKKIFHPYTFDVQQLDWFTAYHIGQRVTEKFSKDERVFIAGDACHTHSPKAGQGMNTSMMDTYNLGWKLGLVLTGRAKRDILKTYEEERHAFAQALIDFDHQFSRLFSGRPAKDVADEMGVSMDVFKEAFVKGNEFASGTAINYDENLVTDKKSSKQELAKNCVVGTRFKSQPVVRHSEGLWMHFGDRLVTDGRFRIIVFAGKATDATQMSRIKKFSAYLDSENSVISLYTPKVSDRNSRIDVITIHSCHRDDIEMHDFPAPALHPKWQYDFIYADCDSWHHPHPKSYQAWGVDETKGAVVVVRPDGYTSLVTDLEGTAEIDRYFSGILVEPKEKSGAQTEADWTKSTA

T1 sequence (A0AA82WP17 entry or part of it D99A): as the sequence (A0AA82WP17 entry or part of it D99N) above, with N99A counted along it

Structure (SMILES)	% of wild-type activity (production of 7) [1]	% of wild-type activity (production of 7) [2]	% of wild-type activity (production of 7) [3]	enzyme assay, catechol production [4]
CC(C)=CCc1cc(CO)ccc1O [compound 6, 3-prenyl-4-hydroxybenzylalcohol]	16%	10%	22%	–
Oc1ccccc1 [phenol]	–	–	–	significant production of catechol was observed for PHHY incubating with phenol

— PMC10257657, “A flavin-monooxygenase catalyzing oxepinone formation and the complete biosynthesis of vibralactone” (Nature Communications, 2023)
